{"source": "paper PMC8632718", "about": "“Novel Assay Platform to Evaluate Intracellular Killing of Mycobacterium tuberculosis: In Vitro and In Vivo Validation” (Frontiers in Immunology, 2021)", "key": {"Mtb H37Rv": {"test_system": "Mtb H37Rv", "experiment": "In vitro antitubercular effect, broth dilution MIC", "type": "cell-based", "conditions": "Mycobacterium tuberculosis, 672 h, extracellular Mtb H37Rv, Sula semisynthetic medium pH 6.5, 37°C, 28 days, repeated at least two times"}, "[1]": {"test_system": "Mycobacterium tuberculosis H37Rv", "experiment": "Slow progressing murine TB model (i.p. infection), CFU in organs", "type": "in vivo, BALB/c female mice", "conditions": "BALB/c mice, INH 20 mg/kg bw per os, twice a week for 5 weeks, 1 week after 10th treatment"}, "[2]": {"test_system": "Mtb H37Rv-infected MonoMac-6 human monocytes", "experiment": "Intracellular killing of Mycobacterium tuberculosis", "type": "cell-based"}, "MonoMac-6 cells": {"test_system": "MonoMac-6 cells", "type": "cell-based, human", "conditions": "10 µM Cf-peptide, 2 h, LysoTracker, ImageJ JACoP on merged images", "protocol": "Cellular uptake and localization were visualized by confocal laser scanning microscopy. MonoMac-6 cells were seeded 1 day prior to treatment into coverslips (thickness 1, Assistent, Karl Hecht GmbH, Sondheim vor der Rhön, Germany) containing a 24-well plate (Sarstedt, Nümbrecht, Germany) for microscopy studies at a density of 7.5 × 10^4 cells/well, in 1 ml complete DMEM medium. The following day, cells were treated with Cf-peptide at a concentration of 10 µM (diluted in serum-free DMEM medium) for 2 h. Lysosomes were stained by LysoTracker Deep Red (Invitrogen, Waltham, MA, USA) for 30 min, and nuclei were stained by Hoechst 33342 solution (Thermo Scientific, USA). After each step, cells were washed three times with serum-free medium, then cells were fixed by 4% paraformaldehyde for 15 min and mounted to microscopy slides with Mowiol 4-88 (Sigma, Budapest, Hungary). Imaging was performed by a Zeiss LSM-710 system (Carl Zeiss microscopy GmbH, Oberkochen, Germany) with a ×40/1.4 Plan-Apochromat oil immersion objective using lasers with the parameters: Cf peptides λex = 488 nm, λem = 541 nm, nuclei λex = 405 nm, λem = 467 nm (Hoechst 33342), lysosomes λex = 633 nm, λem = 720 nm (LysoTrackerTM Deep Red) or λex = 577 nm, λem = 590 nm (LysoTrackerTM Red DND-99) were used. Zeiss ZEN lite software (Carl Zeiss Microscopy GmbH, Jena, Germany) was used for image processing.\nParallel with flow cytometry measurements, confocal laser scanning microscopy images were also captured in order to assess qualitative information on intracellular localization. LysoTrackerTM Deep Red was used for lysosome and Hoechst 33342 for nuclear staining to distinguish subcellular localization of the Cf-peptide. […] Colocalization of Cf-peptide and LysoTracker may be subjectively identified by the cooccurrence, the simple spatial overlap which combined the contribution of both signals (green and red) when the images of each signal are superimposed (merged, see Supplementary Figure S3 ).\nmicroscopy at the 10 µM Cf-peptide concentration (based on flow cytometry profile), and MonoMac6 cells were incubated for 2 hrs.\nthe visible differences among localization profiles of the Cf-peptides, we applied greyscale analysis of\nthe images and the evaluation was carried out on a representative peptide set.\nwere studied and the treatment, the staining and fixation process were carefully optimized to assess\nLaser intensity values were identical in case of all Cf-peptides. ZEN 3.0 blue lite software\nwas used for image processing and grey scale values were extracted using NIH ImageJ software’s Plot"}, "EBC-1 spheroids": {"test_system": "EBC-1 spheroids", "experiment": "Penetration into EBC-1 3D spheroids (confocal line scan)", "type": "cell-based, human", "conditions": "10 µM, 3 h, confocal z-stack to 55 µm, line scan n = 16", "experimental": "In this study, we have employed a modified method based on ([55]). Briefly, micromolds for casting 3D Petri dishes (MicroTissues, Sigma, 5 × 7 array) were filled with molten agarose (2% (w/v) in PBS). The gelled agarose dishes were equilibrated with serum-free DMEM (2 ml/2 h, 37°C). Cells were seeded after incubation (1.8 × 10^4 cell/µL in DMEM CM). Prior to seeding process, nuclei were stained with Hoechst 33342 solution (0.2 µM) for 30 min ( Figure 2 ). Based on our previous work ([55]), the nuclear stain could not successfully penetrate into deeper layers of the spheroids (mostly localized at the spheroid surface), and towards the center of the spheroids the Hoechst 33342 signal was gradually decreasing. Stained cells were incubated in 2 ml DMEM CM for 48 h while cell-to-cell adhesion drives the aggregation and formation of spheroids. To monitor the condition of the spheroids, bright-field images were captured (Olympus CX41). After 48 h of incubation, spheroids were washed two times with fresh ICM DMEM and were treated with the Cf-Dhvar4 peptide (10 µM/2 ml ICM DMEM for 3 h). […] Line scan analysis was performed by NIH ImageJ software, two spheroids were analyzed (eight scans per spheroid, n = 16 in total). […]\nNext, we assessed the penetration ability of Cf-Dhvar4 peptide on spheroids formed from EBC-1 cells. […]"}, "[3]": {"experiment": "Analytical RP-HPLC retention time (correlates with overall hydrophobicity)", "type": "physicochemical", "set-up": "Rt (retention time): unit not given here", "conditions": "chromatographic measure of hydrophobicity; Waters Acquity UPLC BEH C18 (1.7 µm, 150 × 2.1 mm), flow rate 0.3 ml/min, gradient 2% B 1 min, 2%–100% B 16 min; single peak or first of two 5(6)-Cf isomer peaks", "experimental": "Purified peptides were analyzed by LC-MS using a Thermo Scientific Q Exactive Focus Hybrid Quadrupole-Orbitrap Mass Spectrometer. For the separation, a Waters Acquity UPLC BEH C18 (1.7 µm, 150 × 2.1 mm) column was used with a flow rate of 0.3 ml/min.\nFor INH conjugation, representative cell-penetrating (CPP) and antimicrobial peptides (AMP) were chosen. These cationic, amphiphilic peptides are favored in the transportation of various cargos due to their high internalization rate. The used peptide series contains well-known CPPs such as penetratin, transportan, and Tat, frequently studied AMPs such as magainin and buforin, and designed analogs such as Dhvar4, Crot(1-9,38-42), and CM15. Also, a receptor-binding tuftsin analog (OT20), which was reported as a macrophage-targeting peptide, was also applied. […] Mass spectra and RP-HPLC chromatograms are available at https://figshare.com/s/48a023a25068f7658adf, DOI: 10.6084/m9.figshare.16644901. […] To study the internalization rate and intracellular localization, fluorescently labeled analogs were also synthesized. Note that the retention time of Cf-peptide are somewhat higher than unlabeled analogs, and in some cases, two peaks were detected due to the isomeric distribution of 5(6)-Cf molecule."}, "EBC-1 cells": {"test_system": "EBC-1 cells", "type": "cell-based, human", "conditions": "10 µM, 3 hrs, fixed, 30 profiles", "experimental": "In addition to the internalization experiments, the surface morphology of INH-peptide-treated and fixed EBC-1 cells was also studied with atomic force microscopy (AFM) ( Supplementary Information 1.3 ). High-resolution imaging of the cell surfaces was performed with a Flex-Axiom AFM system (Nanosurf, Liestal, Switzerland).The representative images and surface roughness of the native and treated cells are shown in Supplementary Figure S2 .\n1.3 Membrane integrity evaluation by atomic force microscopy (AFM) […]\nHigh resolution imaging of the surfaces were performed with a Flex-Axiom AFM system (Nanosurf, Liestal, Switzerland) operating in dynamic mode utilizing soft-tapping cantilevers (Tap150-G, BudgetSensors) with nominal force constant of 5 N/m. The recorded images were evaluated with the Gwyddion software. […]\nTwo cut-off frequencies were chosen with real-space wavelengths of 1 μm and 200 nm. […] Figure 2D,E,F. Scale dependent surface roughness of the cells was determined according to Antonio et al. Mean Rq values are somewhat higher in the peptide and conjugate treated cells, but […]\nSupplementary Figure 2. […] The apex area of the cells was selected for imaging with a scan area of 5 μm × 5 μm (512 × 512 pixel resolution), where the cellular curvature has the smallest distortion effect on the recorded height profiles. […]\n1.4. […] To quantify […]"}, "[4]": {"test_system": "CALU-1 monolayer / EBC-1 cells", "type": "in vitro ADME, human", "conditions": "Transwell, 0.4 µm polycarbonate, Cf-peptide apical 10 and 20 µM, 45 min, apical to basolateral; EBC-1 fluorescence read-out", "experimental": "EBC-1 lung squamous carcinoma and CALU-1 human lung epidermoid carcinoma were seeded on 24-well plates with Transwell inserts (TW) [Nunc, Sigma polycarbonate microporous membrane, 0.4 µm pore size (growth area 0.412 cm^2)]. Before use, TW inserts were incubated with ICM. On day 1, 300 μl of CALU-1 suspension in complete DMEM medium (8.0 × 10^5 cells) was pipetted onto the surface of the TW apical chamber and 500 μl complete DMEM medium was added to the basolateral side. In order to avoid nonattached cells, after incubation at 37°C for 5–6 h, the apical medium was removed and replaced with fresh complete DMEM medium. […] On day 5, the medium was changed, then Cf-peptide was added to the CALU-1-containing apical side at 10 and 20 µM concentrations, and the system was incubated for 45 min or 3 h (37°C, 5% CO2). The TW chamber was removed after incubation. EBC-1 cells were studied using flow cytometry (BD LSR II).\nEBC-1 cells were treated without the presence of the TW inserts as controls (on day 4 prior to treatment, EBC-1 cells (10^5 cells/well in complete DMEM). […]\nFigure 7 The penetration ability of Cf-peptides was determined on Transwell bronchial interface, and the penetration rates were quantified by flow cytometry. […] The confluence of CALU-1 monolayer was monitored with CellTracker Green, and after development of stable green fluorescence, cells were imaged in situ. […]"}}, "note": "Where two headings read alike, the source gives them in different places. Ends that are not written are not given here.", "data": [{"molecule": "NNC(=O)c1ccncc1", "note": "[INH, isoniazid]", "values": [{"measurement": "MIC", "setting": "Mtb H37Rv", "value": "0.1 to 0.5", "unit": "µM"}, {"measurement": "Mtb CFU in spleen", "setting": "[1]; INH-Dhvar4 30 mg/kg bw s.c.", "value": "moderate decrease"}, {"measurement": "Mtb CFU in lung", "setting": "[1]", "value": "Clearance of Mtb from the lung"}, {"measurement": "intracellular killing efficacy (CFU)", "setting": "[2]; 5, 10, 50 µM, treated two times for 3 + 3 days, SDS lysis, CFU on Löwenstein-Jensen after 4 weeks", "value": "not effective"}]}, {"molecule": "Cf-RAGLQFPVGRVHRLLRK [Cf-Dhvar4, 5(6)-carboxyfluorescein-labeled Dhvar4]", "values": [{"measurement": "Pearson's coefficient of colocalization with lysosomal staining", "setting": "MonoMac-6 cells", "value": 0.249}, {"measurement": "penetration ability on EBC-1 spheroids", "setting": "EBC-1 spheroids", "value": "fair penetration ability"}]}, {"molecule": "KRLFKKLLFSLRKY-NH2 [Dhvar4, reference compound]", "values": [{"measurement": "Rt (retention time)", "setting": "[3]", "value": 6.9}, {"measurement": "intracellular killing efficacy (CFU)", "setting": "[2]", "value": "not effective"}, {"measurement": "membrane integrity (AFM surface roughness Rq)", "setting": "EBC-1 cells", "value": "membrane integrity maintained"}, {"measurement": "penetration through CALU-1 monolayer and internalization into EBC-1 cells", "setting": "[4]", "value": "higher internalization rates"}]}]}
